{"source": "patent US20150212068A1", "about": "“Cholyl-L-Lysyl-Fluorescein Assay” (Novassay SA, priority 2012, published 2015)", "key": {"[1]": {"experiment": "Storage stability of CLF in human plasma at −70° C. over 4 weeks (Test 4), HPLC-MS/MS", "assay_type": "in vitro ADME", "details": "for CLF remaining / CLF concentration: (D) storage in plasma at −70° C. per title (section head prints 37° C.); for CLF remaining: vs To; for CLF concentration: 100 ng/ml, mean ± SEM (n = 2)", "experimental": "A working solution of CLF was prepared at 10 μg/ml by diluting the compound in methanol (100%).\nAt To and 4 weeks, 72 hours and 24 hours before To, 4 μl of the working solution of CLF were added to 400 μl of human plasma. The final concentration of CLF was of 100 ng/ml. Samples were divided in 2 equal fractions of 200 μl and stored at −70° C. until further analysis.\nAn internal standard (IS), 5-([4,6-Dichlorotriazin-2-yl]amino)fluorescein hydrochloride, was added to each plasma sample (calibrators, QC, zero and test samples) in order to monitor the extraction. Thus, a stock solution of IS at 100 μg/ml in acetonitrile was 50-fold diluted in acetonitrile in order to obtain a final concentration of 2 μg/ml. Then, 200 μl of this solution were added to each plasma sample in order to precipitate the proteins. Samples were vortexed/mixed and centrifuged 5 min at 20,000 g (4° C.). After centrifugation, the clear supernatant (around 250 μl) was transferred into 1.2 ml HPLC glass vials and sealed. Samples were placed into the refrigerated autosampler and 20 μl were injected into the HPLC-MS/MS system. Test samples were injected twice.\nHPLC separation was operated with a mixture of water and acetonitrile containing 0.1% of formic acid and the reversed phase mode was selected. The injected volume of sample was 20 μl and the “full loop” mode was applied. The temperature of the analytical column was kept at 30° C.\nCLF and its IS were separated on an Acclaim 120 C18 column (5 μm, 2.1×100 mm, Dionex) by elution with a linear gradient of acetonitrile in water as described in Table 6.\nAn ion trap mass spectrometer equipped with an ESI interface was operated in the positive ionization mode. For each compound, the most abundant ion formed in MS was selected for MS/MS fragmentations. In order to increase the sensitivity and the specificity of the method, the MRM mode was selected. The most specific daughter ions formed in MS/MS were used for quantification."}, "[2]": {"experiment": "Stability of CLF in whole human blood at 37° C. (Test 1), HPLC-MS/MS", "assay_type": "in vitro ADME", "details": "for CLF concentration: whole human blood spiked 100 ng/ml, mean ± SEM (n = 2); for CLF remaining: whole human blood, vs To", "experimental": "Fifty microliters (50 μl) of the working solution of CLF were added to 5 ml of human EDTA blood. The final concentration of CLF in blood was of 100 ng/ml. One aliquot of 1 ml of blood was taken (To) and the remaining solution was incubated at 37° C. in a water bath for 30 min, 120 min and 24 h. At the end of each incubation time, 1 ml of blood was taken and plasma was prepared by centrifugation of samples at 2000 g (4° C.) for 10 min. Two equal aliquots of 200 μl were prepared and stored at −70° C. until further analysis. […] Thus, a stock solution of IS at 100 μg/ml in acetonitrile was 50-fold diluted in acetonitrile in order to obtain a final concentration of 2 μg/ml. Then, 200 μl of this solution were added to each plasma sample in order to precipitate the proteins. Samples were vortexed/mixed and centrifuged 5 min at 20,000 g (4° C.). After centrifugation, the clear supernatant (around 250 μl) was transferred into 1.2 ml HPLC glass vials and sealed. Samples were placed into the refrigerated autosampler and 20 μl were injected into the HPLC-MS/MS system. Test samples were injected twice. […] The injected volume of sample was 20 μl and the “full loop” mode was applied. The temperature of the analytical column was kept at 30° C. CLF and its IS were separated on an Acclaim 120 C18 column (5 μm, 2.1×100 mm, Dionex) by elution with a linear gradient of acetonitrile in water as described in Table 6. An ion trap mass spectrometer equipped with an ESI interface was operated in the positive ionization mode. For each compound, the most abundant ion formed in MS was selected for MS/MS fragmentations. In order to increase the sensitivity and the specificity of the method, the MRM mode was selected. The most specific daughter ions formed in MS/MS were used for quantification."}, "[3]": {"experiment": "Solubility and stability of CLF in working solutions by HPLC-UV-MS (254 nm)", "assay_type": "physicochemical", "details": "[CLF] = 50 μg/ml", "experimental": "HPLC separation was operated with a mixture of water and acetonitrile containing 0.1% of formic acid and the reversed phase mode was selected. The injected volume of sample was 20 μl and the “full loop” mode was applied. The temperature of the analytical column was kept at 30° C. CLF, its metabolites and its IS were separated on a SunFire C18 column (5 μm, 2.1×100 mm, Waters) by elution with a linear gradient of acetonitrile in water as described in Table 62.\nThe wavelength of UV detector was scaled at 254 nm. An ion trap mass spectrometer equipped with electrospray ionization (ESI) interface was operated in positive ionization mode. Detection was carried out in the following modes: • MS mode (full scan) in positive ESI for analysis of working and treatment solutions and metabolites identification, • MS/MS mode (MRM, multiple reaction monitoring) in positive ESI for qualitative analysis of CLF, its IS and its metabolites. Briefly, specific parent ions formed for CLF, its IS and its identified metabolites were selected for MS/MS fragmentations.\nTwo working solutions of CLF were prepared. The first was prepared in 100% methanol for a final concentration of CLF at 109.6 μg/ml (SS CLF-MetOH) and the second was prepared in aqueous ethanol (water/ethanol/sodium hydroxide (50%), at 1000/500/30, v/v/v) for a final concentration of CLF at 71.6 μg/ml (SS CLF-EtOH).\nWorking solution used during this study were centrifuged 5 min at 3000 g and then diluted in a methanol/water mixture (50/50, v/v) in order to obtain three homogeneous solutions at 50 μg/ml. Then, 200 μl were transferred into 1.2 ml HPLC glass vials and sealed. Samples were placed into the refrigerated auto-sampler and 20 μl were injected into the HPLC-UV-MS system.\nA blank sample was included (methanol/water, 50/50, v/v) to clearly distinguish interferences and impurities. The UV detection (scaled at 254 nm) allowed evaluating the solubility of CLF in both solvents by comparing CLF chromatographic peak areas. In case of signs of instability (additional chromatographic peaks), MS and then MS/MS (if needed) detections allowed to identify the impurities formed."}}, "note": "“Also recorded” adds a separate entry of the source. Marks after values point to notes of the source that are not given here."}
{"smiles": "CC(CCC(=O)NC(CCCCNC(=S)Nc1ccc(-c2c3ccc(=O)cc-3oc3cc(O)ccc23)c(C(=O)O)c1)C(=O)O)C1CCC2C3C(O)CC4CC(O)CCC4(C)C3CC(O)C12C", "note": "[CLF, Cholyl-L-Lysyl-Fluorescein]", "values": [{"measurement": "CLF remaining", "setting": "[1]; 0.0 days", "value": 100.0, "unit": "%"}, {"measurement": "CLF concentration", "setting": "[1]; 0.0 days", "value": "101.2 ± 5.8", "unit": "ng/mL"}, {"measurement": "CLF concentration", "setting": "[1]; 1.0 days", "value": "105.5 ± 2.5", "unit": "ng/mL"}, {"measurement": "CLF concentration", "setting": "[1]; 3.0 days", "value": "104.7 ± 6.9", "unit": "ng/mL"}, {"measurement": "CLF concentration", "setting": "[1]; 28.0 days", "value": "96.2 ± 1.4", "unit": "ng/mL"}, {"measurement": "CLF remaining", "setting": "[1]; 1.0 days", "value": 104.3, "unit": "%"}, {"measurement": "CLF remaining", "setting": "[1]; 3.0 days", "value": 103.5, "unit": "%"}, {"measurement": "CLF remaining", "setting": "[1]; 28.0 days (4 weeks)", "value": 95.0, "unit": "%"}, {"measurement": "plasmatic concentrations measured", "setting": "[1]; plasma spiked with 100 ng/ml, stored at −70° C., 0-4 weeks", "value": "96.2 to 105.5", "unit": "ng/mL"}, {"measurement": "CLF stability in plasma on storage", "setting": "[1]; up to 4 weeks at −70° C.", "value": "stable"}, {"measurement": "time over which CLF stability in human plasma was confirmed", "setting": "[1]; −70° C.", "value": "at least 4 weeks"}, {"measurement": "CLF stability in whole human blood", "setting": "[2]; 37° C., 24 hours, 100 ng/ml", "value": "stable during 24 h; also recorded: stable over 24 hours"}, {"measurement": "plasmatic concentrations measured", "setting": "[2]; whole blood spiked with 100 ng/ml, 37° C., 0-24 h", "value": "165.1 to 180.3", "unit": "ng/mL"}, {"measurement": "repartition of CLF in blood", "setting": "[2]; whole blood spiked with CLF, plasma prepared by centrifugation", "value": "mainly distributed in the plasmatic fraction; also recorded: mainly distributed in the plasma fraction"}, {"measurement": "percentage of compound remaining (by comparing with content at To), lowest over incubation", "setting": "[2]; whole blood, 37° C., up to 24 h", "value": "at least 104.1%"}, {"measurement": "CLF concentration", "setting": "[2]; 37° C., 0.0 hours, plasmatic concentration", "value": "165.1 ± 2.6", "unit": "ng/mL"}, {"measurement": "CLF concentration", "setting": "[2]; 37° C., 0.5 hours", "value": "171.9 ± 6.7", "unit": "ng/mL"}, {"measurement": "CLF concentration", "setting": "[2]; 37° C., 2.0 hours", "value": "180.3 ± 7.4", "unit": "ng/mL"}, {"measurement": "CLF concentration", "setting": "[2]; 37° C., 24.0 hours", "value": "173.8 ± 1.7", "unit": "ng/mL"}, {"measurement": "CLF remaining", "setting": "[2]; 37° C., 0.0 hours", "value": 100.0, "unit": "%"}, {"measurement": "CLF remaining", "setting": "[2]; 37° C., 0.5 hours", "value": 104.1, "unit": "%"}, {"measurement": "CLF remaining", "setting": "[2]; 37° C., 2.0 hours", "value": 109.2, "unit": "%"}, {"measurement": "CLF remaining", "setting": "[2]; 37° C., 24.0 hours", "value": 105.3, "unit": "%"}, {"measurement": "Peak Area, UV detection (254 nm)", "setting": "[3]; Aqueous ammonium bicarbonate solution (0.1M), other batch of CLF", "value": "5305.5*"}, {"measurement": "peak area of CLF in aqueous ethanol mixture relative to methanol and aqueous ammonium bicarbonate 0.1 M (fold lower)", "setting": "[3]; HPLC-UV 254 nm, water/ethanol/sodium hydroxide working solution", "value": "around 10 fold"}, {"measurement": "Peak Area, UV detection (254 nm)", "setting": "[3]; SS CLF-EtOH working solution", "value": 470.9}, {"measurement": "Peak Area, UV detection (254 nm)", "setting": "[3]; SS CLF-MetOH working solution", "value": 4395.1}]}
